Reference: publication PMC5584945, “Evaluation of robenidine analog NCL195 as a novel broad-spectrum antibacterial agent” (PLoS ONE, 2017)
≈ marks a conversion by molar mass, not a printed value. Entries after “also recorded” stand apart in the source; their conditions may differ. Read-outs that look alike come from different tables or passages of the source.

Key:
[1] = tested on: A. anitratus; assay: MIC, broth micro-dilution; assay type: cell-based; conditions: Acinetobacter calcoaceticus; one A. anitratus isolate; absence of EDTA
Method: (§1) MICs for NCL812 and its analogs (serial two-fold dilutions commencing at 128 μg/ml) were determined (in duplicate) in round bottom 96-well microtitre trays (Sarstedt 82.1582.001), using the broth micro-dilution method recommended by the Clinical and Laboratory Standards Institute (CLSI). […] MIC50, MIC90 and MIC range for NCL812, NCL195 and NCL219 were calculated against each S. pneumoniae, S. aureus or VRE isolate. To assess the potential activity of NCL195 against Gram-negative bacteria, MICs against Acinetobacter spp, E. coli, K. pneumoniae, P. aeruginosa, Proteus spp and Neisseria meningitidis were performed in the presence or absence of 0.08 mM-20 mM EDTA in a standard checkerboard assay.

[2] = tested on: A. calcoaceticus; assay: MIC, broth micro-dilution; assay type: cell-based; conditions: 8 A. calcoaceticus isolates; absence of EDTA
Method: as §1

[3] = tested on: E. coli; assay: MIC alone and checkerboard with EDTA or polymyxin B; assay type: cell-based; conditions: for MIC: Escherichia coli, read-out: MIC, agent alone
Method: as §1

[4] = tested on: P. aeruginosa; assay: as above; assay type: cell-based; conditions: for MIC: Pseudomonas aeruginosa, read-out: MIC, agent alone
Method: as §1

[5] = tested on: A. baumannii; assay: as above; assay type: cell-based; conditions: for MIC: Acinetobacter baumannii
Method: as §1

[6] = tested on: K. pneumoniae; assay: as above; assay type: cell-based; conditions: for MIC of NCL195 in combination with EDTA: with EDTA 10 mM; for MIC: Klebsiella pneumoniae, read-out: MIC, agent alone
Method: as §1

[7] = Kinetic solubility by nephelometry; assay type: physicochemical; conditions: kinetic from dmso stock
[8] = tested on: S. pneumoniae D39; assay: Time-dependent killing assay; assay type: cell-based, Streptococcus pneumoniae
Method: (§2) Time kill assays were performed (in duplicate) essentially as described previously with slight modifications. Briefly, a few colonies of luminescent S. pneumoniae strain D39LUX or luminescent S. aureus ATCC 12600 (Xen29) from an overnight HBA were emulsified in normal saline and adjusted to A600 nm = 0.10 (equivalent to approx. 5 × 10^7 c.f.u. per ml) and the bacterial suspension further diluted 1:20 in saline. […] The compounds were serially diluted in 100% DMSO at 100× the final desired concentration and 100 μl of appropriate concentrations added to each 10 ml preparation. Duplicate cultures were incubated at 37°C (+ 5% CO2 for S. pneumoniae D39), with samples withdrawn at 0, 0.5, 1, 2, 4, 6, 8 and 24 h, serially diluted 10-fold and plated on HBA overnight at 37°C (+ 5% CO2 for S. pneumoniae D39) for bacterial enumeration.

[9] = tested on: S. aureus Xen29; assay: Point of resistance assay (serial passage)
[10] = Pharmacokinetics after IV administration; assay type: in vivo, mouse; conditions: for clearance: read-out: Plasma CL; for half-life: read-out: Apparent t½ (converted); for Vd: read-out: Plasma VSS
Method: (§3) Mice had access to food and water ad libitum throughout the pre- and post-dose sampling period. The Animal Ethics Committee of the Monash Institute of Pharmaceutical Sciences reviewed and approved all animal PK experiments (approval number MIPS.2013.33). The PK studies were conducted in compliance with the Australian Code of Practice for the Care and Use of Animals for Scientific Purposes (7th Edition 2004). […] For both the IV and IP administration, a maximum of two samples were obtained from each mouse, with samples being taken either via submandibular bleed (approximately 120 μl; conscious sampling) or terminal cardiac puncture (0.6 ml; under inhaled Isoflurane anesthesia). No urine samples were collected as mice were housed in bedded cages during the study. […] Mice were humanely sacrificed by cervical dislocation while under anaesthesia (using gaseous isoflurane) at the end of experiments. Blood was collected directly into polypropylene Eppendorf tubes containing heparin as anti-coagulant, and stabilization cocktail (containing Complete (a protease inhibitor cocktail with EDTA) and potassium fluoride) to minimize the potential for ex vivo degradation of the test compounds in blood/plasma samples. Once collected, blood samples were centrifuged immediately, supernatant plasma was removed, and stored at either -80°C (for the IV exposure) or at -20°C (for the IP exposure) until analysis by liquid chromatography-mass spectrometry (LC-MS). Following protein precipitation with acetonitrile, thawed plasma samples were analyzed by LC-MS (Waters Micromass Quattro Premier coupled to a Waters Acquity UPLC) using positive electrospray ionization operating in MRM mode.

[11] = Pharmacokinetics after IP administration; assay type: in vivo, mouse; conditions: mice, IP 43 mg/kg
Method: as §3

[12] = tested on: S. aureus Xen29; assay: Time-dependent killing assay; assay type: cell-based, Staphylococcus aureus; conditions: for Regrowth after 24 h: at the concentrations tested (2× and 4× MIC)
Method: as §2

[13] = male, Swiss (outbred), mouse, plasma, iv, 5 mg/kg, male Swiss outbred mice, read-out: AUC0-inf
[14] = male, Swiss (outbred), mouse, plasma, iv, 5 mg/kg, male Swiss outbred mice
[15] = mouse, plasma, male Swiss outbred mice, IV 5 mg/kg
[16] = male Swiss outbred mice, IV 5 mg/kg, 5 mg/kg

Structure (SMILES): Cc1ccc(/C=N/Nc2cc(N/N=C/c3ccc(C)cc3)nc(N)n2)cc1 [NCL195, 4,6-bis(2-((E)-4-methylbenzylidene)hydrazinyl)pyrimidin-2-amine]
- MIC [1]: 4 µg/mL
- MIC range [2]: 4 to 32 µg/mL
- MIC of NCL195 in combination with EDTA ([3]; E. coli ATCC 11229, with EDTA 0.625 mM): 8 µg/mL
- MIC of NCL195 in combination with polymyxin B ([3]; E. coli ATCC 11229): 0.25 µg/mL
- MIC of NCL195 in combination with EDTA ([3]; E. coli ATCC 25922, with EDTA 2.5 mM): 4 µg/mL
- MIC of NCL195 in combination with polymyxin B ([3]; E. coli ATCC 25922): 0.25 µg/mL
- MIC ([3]; ATCC11229, E. coli ATCC 11229): > 128 µg/mL
- MIC ([3]; ATCC25922, E. coli ATCC 25922): > 128 µg/mL
- MIC of NCL195 in combination with EDTA ([4]; P. aeruginosa ATCC 27853, with EDTA 5 mM): 2 µg/mL
- MIC of NCL195 in combination with polymyxin B ([4]; P. aeruginosa ATCC 27853): 1 µg/mL
- MIC of NCL195 in combination with EDTA ([4]; P. aeruginosa PA01, with EDTA […]): 0.25 µg/mL
- MIC of NCL195 in combination with polymyxin B ([4]; P. aeruginosa PA01): 1 µg/mL
- MIC ([4]; ATCC27853, P. aeruginosa ATCC 27853): > 128 µg/mL
- MIC ([4]; P. aeruginosa PA01): > 128 µg/mL
- MIC of NCL195 in combination with EDTA ([5]; A. baumannii ATCC 12457, with EDTA 0.25 mM): 4 µg/mL
- MIC of NCL195 in combination with polymyxin B ([5]; A. baumannii ATCC 12457): 0.5 µg/mL
- MIC of NCL195 in combination with EDTA ([5]; A. baumannii ATCC 19606, with EDTA 0.5 mM): 2 µg/mL
- MIC of NCL195 in combination with polymyxin B ([5]; A. baumannii ATCC 19606): 0.5 µg/mL
- MIC ([5]; ATCC12457, A. baumannii ATCC 12457, read-out: MIC, agent alone): > 128 µg/mL
- MIC ([5]; ATCC19606, A. baumannii ATCC 19606, read-out: MIC, agent alone): > 128 µg/mL
- MIC ([5]; A. baumannii isolates without strain name (one table line per isolate), read-out: MIC): > 128 µg/mL
- MIC of NCL195 in combination with EDTA ([6]; K. pneumoniae ATCC 4352): 4 µg/mL
- MIC of NCL195 in combination with polymyxin B ([6]; K. pneumoniae ATCC 4352): 0.5 µg/mL
- MIC of NCL195 in combination with EDTA ([6]; K. pneumoniae ATCC 33495): 4 µg/mL
- MIC of NCL195 in combination with polymyxin B ([6]; K. pneumoniae ATCC 33495): 0.25 µg/mL
- MIC ([6]; ATCC4352, K. pneumoniae ATCC 4352): > 128 µg/mL
- MIC ([6]; ATCC33495, K. pneumoniae ATCC 33495): > 128 µg/mL
- solubility ([7]; pH 2.0): 3.1 to 6.3 µg/mL (≈ 8.62 to 17.5 µM)
- solubility ([7]; pH 6.5): < 1.6 µg/mL
- Time to reduce the population below the limit of detection ([8]; 2× MIC): 6 h
- Time to reduce the population below the limit of detection ([8]; 4× MIC): 4 h
- MIC of colonies that grew after 72 h in the presence of NCL195 ([9]; 10^5 c.f.u. Xen29 in broth with 1×, 2× and 4× MIC): 1 × MIC
- Resistance (fold MIC) over serial passage ([9]; 24 daily sequential cultures): ≤ 1 × MIC
- AUC(0-inf) [10, 13]: 12.5 µM·h
- clearance [10, 14]: 16.3 mL/min/kg
- half-life [10, 15]: 2.4 h
- Vd [10, 15]: 2.6 L/kg
- Adverse reactions after IP administration [11]: No adverse reactions or compound-related side effects were observed
- Plasma concentration ([11]; between 7.5 and 24 h post-dose): 200 to 500 ng/mL
- Plasma concentration ([11]; initial 7.5 h post-dose): 3000 to 4000 ng/mL
- Time to clear all Xen29 ([12]; 2× MIC): 6 h
- Time to clear all Xen29 ([12]; 4× MIC): 6 h
- Regrowth after 24 h [12]: some S. aureus regrowth was observed

Structure (SMILES): C/C(=N\NC(=N)N/N=C(\C)c1ccc(C(C)(C)C)cc1)c1ccc(C(C)(C)C)cc1 [NCL219, (E)-N'-((E)-1-(4-(tert-butyl)phenyl)ethylidene)-2-(1-(4-(tert-butyl)phenyl)ethylidene)hydrazine-1-carboximidhydrazide]
- solubility ([7]; pH 2.0): 0.78 to 1.6 µg/mL (≈ 1.92 to 3.94 µM)
- solubility ([7]; pH 6.5): 0.78 to 1.6 µg/mL (≈ 1.92 to 3.94 µM)

Structure (SMILES): CC1(C)S[C@@H]2[C@H](NC(=O)[C@H](N)c3ccccc3)C(=O)N2[C@H]1C(=O)O [Ampicillin]
- Time to reduce the population below the limit of detection ([8]; 4× MIC): 8 h
- Time to clear all Xen29 ([12]; 4× MIC): 6 h
- Regrowth after 24 h [12]: some S. aureus regrowth was observed

Structure (SMILES): CCCCCCCCCC(=O)N[C@@H](Cc1c[nH]c2ccccc12)C(=O)N[C@H](CC(N)=O)C(=O)N[C@@H](CC(=O)O)C(=O)N[C@@H]1C(=O)NCC(=O)N[C@@H](CCCN)C(=O)N[C@@H](CC(=O)O)C(=O)N[C@H](C)C(=O)N[C@@H](CC(=O)O)C(=O)NCC(=O)N[C@H](CO)C(=O)N[C@@H]([C@H](C)CC(=O)O)C(=O)N[C@@H](CC(=O)c2ccccc2N)C(=O)O[C@@H]1C [Daptomycin, daptomycin]
- Resistance (fold MIC) over serial passage ([9]; by day 12 of the serial passage): 8 ×MIC
- Day of serial passage by which resistance developed ([9]; daily serial passage): 5 days
- Time to clear all Xen29 ([12]; 4× MIC): 1 h

Structure (SMILES): Cl.N=C(NN=Cc1ccc(Cl)cc1)NN=Cc1ccc(Cl)cc1 [NCL812, 2,2'-bis[(4-chlorophenyl)methylene] carbonimidic dihydrazide hydrochloride]
- solubility ([7]; pH 2.0): 6.3 to 12.5 µg/mL
- solubility ([7]; pH 6.5): < 1.6 µg/mL
- AUC(0-inf) [10, 16]: ~27.9^ a h*μM
- Plasma CL [10, 16]: ~9.5^ a mL/min/kg
- AUC(0-inf) [10, 13]: 27.9 µM·h
- clearance [10, 14]: 9.5 mL/min/kg
- Adverse signs after parenteral (IV) administration ([10]; mice, IV 5 mg/kg, 5 mg/kg): adverse neurological signs; also recorded: adverse clinical signs
- half-life [10, 15]: ~8.2 h
- Vd [10, 15]: ~5.9 L/kg
